Measurements: patent US20150374676A1, “HELICASE-PRIMASE INHIBITORS FOR USE IN A METHOD OF TREATING ALZHEIMER'S DISEASE” (AICURIS GMBH & CO. KG, priority 2013, published 2015)
Where two headings read alike, the source gives them in different places.

Assay: Single-dose escalation pharmacokinetics in volunteers
Assay type: in vivo, human
Conditions: human, mean, n = 6; for Ae: excreted in urine; for AUC(0-inf) / Cmax: free base in plasma
Source text: Exposure of the free base form of N-[5-(aminosulfonyl)-4-methyl-1,3-thiazol-2-yl]-N-methyl-2-[4-(2-pyridinyl)-phenyl]acetamide to the human body may be measured by high pressure liquid chromatography (HPLC) by looking at different pharmacokinetic parameters in suitable bodily fluids such as for instance blood plasma and urine, the most common parameters being the Cmax, the so-called area under the curve (AUC), and the terminal half-life (t1/2Z). Hereto, the person skilled in the art understands that said parameters are determined by using adequate bioanalytical methods with adequate sensitivity, specificity, ruggedness, stability and repeatability, as for instance a qualified liquid chromatography triple quad mass spectrometry based method coupled with a suitable extraction method for the separation of the analyte from, e.g. the blood plasma.
Therefore, pharmacokinetic studies in human subjects were undertaken following both single and multiple dose administrations of the crystalline mono mesylate monohydrate salt of N-[5-(aminosulfonyl)-4-methyl-1,3-thiazol-2-yl]-N-methyl-2-[4-(2-pyridinyl)phenyl]acetamide, wherein the particle size distribution is preferably defined by d(0.1) from 2 to 100 μm, d(0.5) from 30 to 210 μm and d(0.9) from 70 to 400 μm with a specific surface area of the particles less than 1.0 m^2/g, and more preferably defined by d(0.1) from 10 to 75 μm, d(0.5) from 100 to 175 μm, d(0.9) from 200 to 350 μm with a specific surface area of the particles less than 0.3 m^2/g.
Single oral doses of the crystalline mono mesylate monohydrate salt of N-[5-(aminosulfonyl)-4methyl1,3thiazol-2-yl]-N-methyl-2-[4-(2-pyridinyl)phenyl]acetamide using the formulations in accordance with example a and Table a, were administered to six volunteers per dose step. The overall shape of the plasma concentrations vs. time profiles were similar across all doses applied (see FIG. 4 and FIG. 6).
Table b: Pharmacokinetic parameters after ascending single oral doses of crystalline mono mesylate monohydrate salt of N-[5-(aminosulfonyl)-4-methyl-1,3-thiazol-2-yl]-N-methyl-2-[4-(2-pyridinyl)phenyl]acetamide in the formulations in accordance with table a wherein the particle size distribution is preferably defined by d(0.1) from 2 to 100 μm, d(0.5) from 30 to 210 μm and d(0.9) from 70 to 400 μm with a specific surface area of the particles less than 1.0 m^2/g, and more preferably defined by d(0.1) from 10 to 75 μm, d(0.5) from 100 to 175 μm, d(0.9) from 200 to 350 μm with a specific surface area of the particles less than 0.3 m^2/g.
AUC0-∞: Area under the analyte vs. time concentration from time of administration up to infinity, calculated as
wherein AUC0-last is defined as the area under the analyte vs. time concentration up to time of the last qualifiable concentration, calculated by linear up/log down summation and Clast is defined as last quantifiable observed analyte concentration. λz is the apparent terminal elimination rate constant, determined by linear regression of terminal points of In-linear analyte concentration-time curve.
Cmax is the maximal observed analyte concentration and tmax is the time to reach Cmax;
t1/2z is defined as the apparent terminal elimination half-life, calculated as
MRT: Mean Residence Time; calculated AUMC divided by AUC, wherein AUMC is the area under the first moment of the concentration-time curve from zero up to ∞ with extrapolation of the terminal phase and AUC is the area under the concentration-time curve from zero up to ∞ with extrapolation of the terminal phase.
CL/F refers to the clearance after oral administration of a drug and Ae refers to the amount of drug excreted in the urine.

[1] = single oral dose 5 mg free base equivalent
[2] = single oral dose 10 mg free base equivalent
[3] = single oral dose 20 mg free base equivalent
[4] = single oral dose 40 mg free base equivalent
[5] = single oral dose 80 mg free base equivalent, females
[6] = single oral dose 80 mg free base equivalent, males
[7] = single oral dose 160 mg free base equivalent
[8] = single oral dose 240 mg free base equivalent
[9] = single oral dose 320 mg free base equivalent
[10] = single oral dose 400 mg free base equivalent
[11] = single oral dose 480 mg free base equivalent
[12] = single oral dose 600 mg free base equivalent

CL/F [1]: 0.89 L/h
t1/2z [1]: 80 h
AUC(0-inf) [1]: 5.8 µg·h/mL
Cmax (single oral dose 5 mg free base equivalent, read-out: Cmax): 74 ng/mL
CL/F [2]: 0.87 L/h
t1/2z [2]: 85 h
AUC(0-inf) [2]: 11.7 µg·h/mL
Cmax (single oral dose 10 mg free base equivalent, read-out: Cmax): 170 ng/mL
CL/F [3]: 1.10 L/h
t1/2z [3]: 76 h
AUC(0-inf) [3]: 18.5 µg·h/mL
Cmax (single oral dose 20 mg free base equivalent, read-out: Cmax): 234 ng/mL
CL/F [4]: 1.00 L/h
t1/2z [4]: 72 h
AUC(0-inf) [4]: 40.7 µg·h/mL
Cmax (single oral dose 40 mg free base equivalent, read-out: Cmax): 608 ng/mL
CL/F [5]: 0.85 L/h
t1/2z [5]: 58 h
CL/F [6]: 0.94 L/h
t1/2z [6]: 74 h
CL/F [7]: 1.28 L/h
t1/2z [7]: 63 h
AUC(0-inf) [7]: 131 µg·h/mL
Cmax [7]: 2613 ng/mL
CL/F [8]: 1.15 L/h
t1/2z [8]: 64 h
AUC(0-inf) [8]: 217 µg·h/mL
Cmax [8]: 3600 ng/mL
CL/F [9]: 1.47 L/h
t1/2z [9]: 57 h
AUC(0-inf) [9]: 241 µg·h/mL
Cmax [9]: 4648 ng/mL
CL/F [10]: 1.31 L/h
t1/2z [10]: 57 h
AUC(0-inf) [10]: 320 µg·h/mL
Cmax [10]: 6926 ng/mL
CL/F [11]: 1.33 L/h
t1/2z [11]: 53 h
AUC(0-inf) [11]: 387 µg·h/mL
Cmax [11]: 6921 ng/mL
CL/F [12]: 2.00 L/h
t1/2z [12]: 52 h
AUC(0-inf) [12]: 321 µg·h/mL
Cmax (single oral dose 600 mg free base equivalent, read-out: Cmax): 6440 ng/mL
SMILES: CS(=O)(=O)O.Cc1nc(N(C)C(=O)Cc2ccc(-c3ccccn3)cc2)sc1S(N)(=O)=O [mono mesylate monohydrate salt, N-[5-(aminosulfonyl)-4-methyl-1,3-thiazol-2-yl]-N-methyl-2-[4-(2-pyridinyl)-phenyl]acetamide mono methanesulfonic acid monohydrate]
Ae [1]: 0 % of dose
Ae [2]: 0 % of dose
Ae [3]: 0 % of dose
Ae [4]: 0 % of dose
Ae [5]: 0.31 % of dose
Ae [6]: 0.16 % of dose
Ae [7]: 0.15 % of dose
Ae [8]: 0.21 % of dose
Ae [9]: 0.16 % of dose
Ae [10]: 0.15 % of dose
Ae [11]: 0.26 % of dose
Ae [12]: 0.09 % of dose
